Results taken from ChEMBL document CHEMBL1133622, “Probes for narcotic receptor-mediated phenomena. 27. Synthesis and pharmacological evaluation of selective delta-opioid receptor agonists from 4-[(alphaR)-alpha-(2S,5R)-4-substituted-2, 5-dimethyl-1-piperazinyl-3-methoxybenzyl]-N,N-diethylbenzamides and their enantiomers” (J Med Chem, 2000).
pKi: −log10 of the molar value.

Assays:
[1] = biological target: Delta-type opioid receptor (Rattus norvegicus, UniProt P33533); assay: Inhibition of [3H]-DADLE binding to rat brain membrane Opioid receptor delta 1
Sequence of Delta-type opioid receptor (P33533 whole entry): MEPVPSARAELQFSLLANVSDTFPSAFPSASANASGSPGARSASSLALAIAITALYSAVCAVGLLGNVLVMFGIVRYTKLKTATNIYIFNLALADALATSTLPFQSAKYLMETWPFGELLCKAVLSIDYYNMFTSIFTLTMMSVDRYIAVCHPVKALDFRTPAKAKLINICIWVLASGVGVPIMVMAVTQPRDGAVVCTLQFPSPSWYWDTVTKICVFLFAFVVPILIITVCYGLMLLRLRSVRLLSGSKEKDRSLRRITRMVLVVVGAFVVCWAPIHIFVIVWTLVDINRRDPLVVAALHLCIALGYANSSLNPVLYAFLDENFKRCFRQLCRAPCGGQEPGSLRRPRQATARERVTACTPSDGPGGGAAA

[2] = biological target: Delta-type opioid receptor (Rattus norvegicus) (UniProt P33533); assay: Percent inhibition of SNC80 stimulated [35S]GTP-gamma-S, binding at 10 uM; assay type: functional
Sequence of Delta-type opioid receptor (Rattus norvegicus) (P33533 whole entry): as above

[3] = biological target: Delta-type opioid receptor (Rattus norvegicus) (UniProt P33533); assay: Percent stimulation of [35S]GTP-gamma-S, binding at 10 uM; assay type: functional
[4] = biological target: Delta-type opioid receptor (Rattus norvegicus) (UniProt P33533); assay: (§1) Percent inhibition of SNC80 stimulated [35S]GTP-gamma-S, binding by the compound (10 uM); assay type: functional
Rattus norvegicus [5] = organism: Rattus norvegicus; assay: as §1; assay type: functional
Rattus norvegicus [6] = organism: Rattus norvegicus; assay: Percent stimulation of [35S]GTP-gamma-S, binding by the compound (10 uM); assay type: functional

Row | SMILES | pKi [1] | inhibition [2] [%] | Stimulation [3] [%] | inhibition [4] [%] | Inhibition (Rattus norvegicus [5]) [%] | Stimulation (Rattus norvegicus [6]) [%]
1 | CCCCCCN1C[C@H](C)N([C@H](c2ccc(C(=O)N(CC)CC)cc2)c2cccc(OC)c2)C[C@H]1C | 7.98 | 34 | 21 |  |  | 
2 | C=C(C)CN1C[C@H](C)N([C@H](c2ccc(C(=O)N(CC)CC)cc2)c2cccc(OC)c2)C[C@H]1C | 8.32 | 2.3 | 119 |  |  | 
3 | C/C=C/CN1C[C@H](C)N([C@H](c2ccc(C(=O)N(CC)CC)cc2)c2cccc(OC)c2)C[C@H]1C | 8.72 | 6.3 | 130 |  |  | 
4 | CCN(CC)C(=O)c1ccc([C@H](c2cccc(OC)c2)N2C[C@@H](C)N(Cc3ccccc3)C[C@@H]2C)cc1 | 8.21 | 0 | 144 |  |  | 
5 | CCN(CC)C(=O)c1ccc([C@H](c2cccc(OC)c2)N2C[C@@H](C)N(CC3CC3)C[C@@H]2C)cc1 | 8.46 |  | 48 | 18 |  | 
6 | CCCCCN1C[C@H](C)N([C@H](c2ccc(C(=O)N(CC)CC)cc2)c2cccc(OC)c2)C[C@H]1C | 8.33 |  | 26 | 28 |  | 
7 | CCN(CC)C(=O)c1ccc([C@H](c2cccc(OC)c2)N2C[C@@H](C)N(CCc3ccccc3)C[C@@H]2C)cc1 | 7.51 | 30 | 10 |  |  | 
8 | CCN(CC)C(=O)c1ccc([C@H](c2cccc(OC)c2)N2C[C@@H](C)N(C)C[C@@H]2C)cc1 | 8.35 | 18 | 25 |  |  | 
9 | CCCCN1C[C@H](C)N([C@H](c2ccc(C(=O)N(CC)CC)cc2)c2cccc(OC)c2)C[C@H]1C | 8.57 |  | 66 |  | 19 | 
10 | CCN(CC)C(=O)c1ccc([C@H](c2cccc(OC)c2)N2C[C@@H](C)N(CCCc3ccccc3)C[C@@H]2C)cc1 | 7.78 | 13 | 18 |  |  | 
11 | CCN(CC)C(=O)c1ccc([C@H](c2cccc(OC)c2)N2C[C@@H](C)N(CC)C[C@@H]2C)cc1 | 8.28 |  | 45 | 13 |  | 
12 | CCN(CC)C(=O)c1ccc([C@H](c2cccc(OC)c2)N2C[C@@H](C)NC[C@@H]2C)cc1 | 8.33 | 11 | 63 |  |  | 
13 | C=CCN1C[C@H](C)N([C@H](c2ccc(C(=O)N(CC)CC)cc2)c2cccc(OC)c2)C[C@H]1C [SNC-80] |  |  |  |  | 0 | 128
